# In patent US8115017B2, “C-phenyl 1-thioglucitol compound” (Taisho Pharmaceutical Co., Ltd, priority 2006, dated 2012):
# pIC50: −log10 of the molar value.
# Columns and labels:
# human SGLT1 = biological target: T1, human SGLT1 (Homo sapiens, UniProt P13866); experiment: Inhibition test for sodium-dependent sugar uptake in CHO-K1 cells stably expressing human SGLT1; assay type: cell-based; conditions: [14C]methyl α-D-glucopyranoside uptake, 37° C., 30 minutes, read-out: human SGLT1 IC50 (50% inhibition of sugar uptake)
# T1 construct: expressed in transfected cells; host or cells: CHO-K1
# T1 sequence (P13866 1-664): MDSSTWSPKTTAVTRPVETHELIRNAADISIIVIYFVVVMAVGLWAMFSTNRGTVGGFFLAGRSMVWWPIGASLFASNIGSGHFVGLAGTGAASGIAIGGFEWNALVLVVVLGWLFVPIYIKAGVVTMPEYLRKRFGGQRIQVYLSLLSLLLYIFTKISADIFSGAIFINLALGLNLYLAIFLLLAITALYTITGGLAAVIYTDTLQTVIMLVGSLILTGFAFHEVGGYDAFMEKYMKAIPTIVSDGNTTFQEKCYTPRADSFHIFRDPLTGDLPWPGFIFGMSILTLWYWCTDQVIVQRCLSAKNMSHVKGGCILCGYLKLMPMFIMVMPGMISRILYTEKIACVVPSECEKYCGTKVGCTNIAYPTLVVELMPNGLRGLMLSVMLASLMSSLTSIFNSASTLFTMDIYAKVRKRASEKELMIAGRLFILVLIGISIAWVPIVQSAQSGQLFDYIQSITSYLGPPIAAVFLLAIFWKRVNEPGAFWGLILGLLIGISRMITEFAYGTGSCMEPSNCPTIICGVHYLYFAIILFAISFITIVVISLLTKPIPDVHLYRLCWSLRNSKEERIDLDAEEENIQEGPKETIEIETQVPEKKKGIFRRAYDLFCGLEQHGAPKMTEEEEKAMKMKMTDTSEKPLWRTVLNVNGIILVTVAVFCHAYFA
# Description: (§1) A human SGLT1 sequence (NM_000343) was reverse-transcribed and amplified from human small intestine mRNA, and then introduced into pCMV-tag5A (Stratagene). Likewise, a human SGLT2 sequence (NM_003041) was prepared from human kidney mRNA in the same manner and introduced into pcDNA3.1+hygro (Invitrogen). The individual cloned sequences were confirmed to be identical with the sequences reported.
# (§2) The human SGLT1 and human SGLT2 expression vectors were each transfected into CHO-K1 cells using lipofectamine 2000 (Invitrogen). The cells were cultured in the presence of 500 μg/mL geneticin (SGLT1) or hygromycin B (SGLT2) to select resistant strains and specific activity of sugar uptake in the system shown below was used as an indicator to obtain SGLT-expressing cells.
# (§3) The cells stably expressing human SGLT1 or human SGLT2 were used for an inhibition test of sodium-dependent glucose uptake activity.
# (§4) Pretreatment buffer (140 mM choline chloride, 2 mM KCl, 1 mM CaCl2, 1 mM MgCl2, 10 mM HEPES/5 mM Tris, pH 7.4) was added in a volume of 200 μL to human SGLT1-expressing cells and 2 mL to human SGLT2-expressing cells, followed by incubation for 20 minutes. The pretreatment buffer was removed and replaced with uptake buffer containing a test compound (1 mM methyl α-D-glucopyranoside (containing [^14C]methyl α-D-glucopyranoside), 145 mM NaCl, 2 mM KCl, 1 mM CaCl2, 1 mM MgCl2, 10 mM HEPES/5 mM Tris, pH 7.4) in a volume of 75 μL for SGLT1 and 200 μL for SGLT2. Uptake reaction was performed at 37° C. for 30 minutes (SGLT1) or 1 hour (SGLT2). After the reaction, the cells were washed twice with washing buffer (10 mM methyl α-D-glucopyranoside, 140 mM choline chloride, 2 mM KCl, 1 mM CaCl2, 1 mM MgCl2, 10 mM HEPES/5 mM Tris, pH 7.4) in a volume of 200 μL for SGLT1 and 2 mL for SGLT2, and then dissolved in a 0.2 M NaOH solution (75 μL for SGLT1 and 400 μL for SGLT2). A liquid scintillator (Perkin Elmer) was added and mixed well with each sample, followed by measurement of radioactivity using a microBETA for SGLT1 or a liquid scintillation counter for SGLT2 (Beckman Coulter). For the control group, uptake buffer containing no test compound was prepared. Moreover, another uptake buffer containing choline chloride instead of NaCl was also prepared for basal uptake.
# (§5) For determination of IC50 values, test compounds prepared at 6 appropriate concentrations were used and their concentrations required for 50% inhibition of the amount of sugar uptake (IC50 values) were calculated relative to the amount of sugar uptake in the control group (100%).
# human SGLT2 = biological target: T2, human SGLT2 (Homo sapiens, UniProt P31639); experiment: Inhibition test for sodium-dependent sugar uptake in CHO-K1 cells stably expressing human SGLT2; assay type: cell-based; conditions: [14C]methyl α-D-glucopyranoside uptake, 37° C., 1 hour, read-out: human SGLT2 IC50 (50% inhibition of sugar uptake)
# T2 construct: expressed in transfected cells; host or cells: CHO-K1
# T2 sequence (P31639 1-672): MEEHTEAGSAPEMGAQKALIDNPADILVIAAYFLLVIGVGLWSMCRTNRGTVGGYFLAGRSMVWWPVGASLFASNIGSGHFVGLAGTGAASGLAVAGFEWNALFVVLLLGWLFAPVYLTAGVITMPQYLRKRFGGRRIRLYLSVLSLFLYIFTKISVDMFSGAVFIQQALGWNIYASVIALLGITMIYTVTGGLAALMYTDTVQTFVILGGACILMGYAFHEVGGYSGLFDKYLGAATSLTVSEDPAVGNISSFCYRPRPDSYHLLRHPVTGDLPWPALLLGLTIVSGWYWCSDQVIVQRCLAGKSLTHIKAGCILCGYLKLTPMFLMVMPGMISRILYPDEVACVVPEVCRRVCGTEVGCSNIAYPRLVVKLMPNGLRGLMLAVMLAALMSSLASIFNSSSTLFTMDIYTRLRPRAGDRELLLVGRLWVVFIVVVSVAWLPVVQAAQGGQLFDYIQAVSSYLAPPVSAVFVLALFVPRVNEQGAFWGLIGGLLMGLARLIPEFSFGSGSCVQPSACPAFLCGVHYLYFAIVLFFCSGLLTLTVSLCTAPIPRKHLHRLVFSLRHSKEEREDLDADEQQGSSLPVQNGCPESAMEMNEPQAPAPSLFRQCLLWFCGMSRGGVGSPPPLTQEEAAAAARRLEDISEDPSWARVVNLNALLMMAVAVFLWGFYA
# Description: as §1, §2, §3, §4, §5
# [1] = tested on: Streptozotocin-induced diabetic model rats; experiment: Oral glucose tolerance test in streptozotocin-induced diabetic model rats (hypoglycemic effect); assay type: in vivo, rat; conditions: STZ diabetic SD/IGS rats; 1 mg/kg oral; glucose 2 g/kg oral; decrease in blood glucose ΔAUC 0-1 h relative to control group
# Description: SD/IGS rats at 7 weeks of age (male, Charles River Laboratories Japan Inc.) were fasted for about 16 hours and then injected with 50 mg/kg streptozotocin (STZ) via the tail vein under ether anesthesia to prepare diabetic model rats. Similarly, another group of SD/IGS rats was injected with 1.25 mmol/L citric acid in physiological saline (1 mL/kg) via the tail vein under ether anesthesia to prepare normal control rats. At one week (8 weeks of age) after injection of STZ or 1.25 mmol/L citric acid in physiological saline, the rats were provided for an oral glucose tolerance test.
# After the rats were fasted for about 16 hours, drug groups were each orally administered with a drug (1 mg/kg) suspended in a 0.5% aqueous carboxymethylcellulose (CMC) solution, while the control group was orally administered with a 0.5% aqueous CMC solution alone. At 5 minutes after drug administration, a glucose solution (2 g/kg) was orally administered and blood was collected at 5 points in total: before drug administration (0 hour) and 0.25, 0.5, 1 and 2 hours after oral administration.
# Blood was collected from the orbital venous sinus of each rat under ether anesthesia using a heparin-coated blood collection tube, and centrifuged to separate plasma. Plasma glucose concentrations were quantified by measurement with a Glucose CII-Test Wako (Wako Pure Chemical Industries, Ltd., Japan). To determine the intensity of hypoglycemic effect, blood glucose levels measured between 0 and 1 hour in each drug group were analyzed by the trapezoidal method to calculate the area under the blood glucose-time curve (AUC), followed by basal subtraction to obtain a blood glucose increment (ΔAUC).
pIC50 (human SGLT1),pIC50 (human SGLT2),SMILES,STZ rat-OGTT (2 g/Kg) % inhibition ΔAUC0-1 h (mgh/dL) @1 mg/Kg [1]
7.96,7.77,"Cc1cc(O)c([C@@H]2S[C@H](CO)[C@@H](O)[C@H](O)[C@H]2O)cc1Cc1ccc(CCCC(=O)NC(C)(C)CO)cc1 [Example 1, (1S)-1,5-anhydro-1-[2-hydroxy-5-(4-{4-[(2-hydroxy-1,1-dimethylethyl)amino]-4-oxobutyl}benzyl)-4-methylphenyl]-1-thio-D-glucitol]",70.4 % inhibition
7.66,7.68,"Cc1cc(O)c([C@@H]2S[C@H](CO)[C@@H](O)[C@H](O)[C@H]2O)cc1Cc1ccc(CCCC(=O)NC(C)(CO)CO)cc1 [Example 2, (1S)-1,5-anhydro-1-{2-hydroxy-5-[4-(4-{[2-hydroxy-1-(hydroxymethyl)-1-methylethyl]amino}-4-oxobutyl)benzyl]-4-methylphenyl}-1-thio-D-glucitol]",65.4 % inhibition
7.46,7.51,"Cc1cc(O)c([C@@H]2S[C@H](CO)[C@@H](O)[C@H](O)[C@H]2O)cc1Cc1ccc(CCCC(=O)NC(CO)(CO)CO)cc1 [Example 3, (1S)-1,5-anhydro-1-{2-hydroxy-5-[4-(4-{[2-hydroxy-1,1-bis(hydroxymethyl)ethyl]amino}-4-oxobutyl)benzyl]-4-methylphenyl}-1-thio-D-glucitol]",60.8 % inhibition
7.33,7.31,"Cc1cc(O)c([C@@H]2S[C@H](CO)[C@@H](O)[C@H](O)[C@H]2O)cc1Cc1ccc(CCCC(=O)NC(C)(C)C(N)=O)cc1 [Example 4, (1S)-1-[5-(4-{4-[(2-amino-1,1-dimethyl-2-oxoethyl)amino]-4-oxobutyl}benzyl)-2-hydroxy-4-methylphenyl]-1,5-anhydro-1-thio-D-glucitol]",66.5 % inhibition
7.70,7.00,"Cc1cc(CCCC(=O)NC(C)(C)CO)ccc1Cc1cc([C@@H]2S[C@H](CO)[C@@H](O)[C@H](O)[C@H]2O)c(O)cc1C [Example 5, (1S)-1,5-anhydro-1-[2-hydroxy-5-(4-{4-[(2-hydroxy-1,1-dimethylethyl)amino]-4-oxobutyl}-2-methylbenzyl)-4-methylphenyl]-1-thio-D-glucitol]",–
7.66,7.49,"Cc1cc(O)c([C@@H]2S[C@H](CO)[C@@H](O)[C@H](O)[C@H]2O)cc1Cc1ccc(CCCNC(=O)NC(C)(C)CO)cc1 [Example 6, (1S)-1-{5-[4-(3-{[(2-hydroxy-1,1-dimethylethyl)aminocarbonyl]amino}propyl)benzyl]-2-hydroxy-4-methylphenyl}-1,5-anhydro-1-thio-D-glucitol]",69.2 % inhibition
7.10,7.42,"Cc1cc(O)c([C@@H]2S[C@H](CO)[C@@H](O)[C@H](O)[C@H]2O)cc1Cc1ccc(CCCCC(=O)NC(C)(C)CO)cc1 [Example 8, (1S)-1,5-anhydro-1-[2-hydroxy-5-(4-{5-[(2-hydroxy-1,1-dimethylethyl)amino]-5-oxopentyl}benzyl)-4-methylphenyl]-1-thio-D-glucitol]",–
